From patent US20240287080A1 (IDEAYA Biosciences Inc., priority 2021, published 2024) come the findings set out here.

For the first assay, the target named is T1, Pol theta (1-899) (Homo sapiens, UniProt O75417).
T1 construct: Pol theta (1-899) (5 nM) in assay buffer
T1 sequence (O75417 1-899): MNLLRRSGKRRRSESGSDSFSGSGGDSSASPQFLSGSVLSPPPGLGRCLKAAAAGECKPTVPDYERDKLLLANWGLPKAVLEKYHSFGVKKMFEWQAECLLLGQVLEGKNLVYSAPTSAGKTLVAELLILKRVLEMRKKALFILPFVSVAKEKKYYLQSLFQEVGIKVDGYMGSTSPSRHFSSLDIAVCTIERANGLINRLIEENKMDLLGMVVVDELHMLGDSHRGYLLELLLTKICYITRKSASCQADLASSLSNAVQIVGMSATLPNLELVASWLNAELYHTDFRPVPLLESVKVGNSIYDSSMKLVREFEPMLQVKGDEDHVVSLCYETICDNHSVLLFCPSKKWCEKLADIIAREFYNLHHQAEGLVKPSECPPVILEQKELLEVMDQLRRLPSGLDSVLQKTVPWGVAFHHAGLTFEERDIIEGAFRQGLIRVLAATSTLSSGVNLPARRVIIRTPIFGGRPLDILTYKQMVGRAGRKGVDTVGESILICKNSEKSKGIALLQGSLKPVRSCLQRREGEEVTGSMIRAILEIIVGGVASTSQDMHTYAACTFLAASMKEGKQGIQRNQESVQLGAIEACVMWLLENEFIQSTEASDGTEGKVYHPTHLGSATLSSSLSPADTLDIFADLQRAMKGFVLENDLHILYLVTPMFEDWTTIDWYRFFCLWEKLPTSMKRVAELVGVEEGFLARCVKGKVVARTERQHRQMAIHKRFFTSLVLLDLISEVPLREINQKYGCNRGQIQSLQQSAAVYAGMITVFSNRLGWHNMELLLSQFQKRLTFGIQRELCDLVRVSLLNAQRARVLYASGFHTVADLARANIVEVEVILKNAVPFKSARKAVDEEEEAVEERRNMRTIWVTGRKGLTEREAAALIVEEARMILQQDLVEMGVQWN
Kind of assay: Pol theta ATPase activity, NADH oxidation-coupled enzymatic assay (ATPase NADH coupling: Standard Screening: hPolQ). Particulars: Pol theta (1-899) 5 nM, NADH oxidation-coupled ATPase assay; compounds of Table 3. The assay is classed as biochemical. The gist of the method: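 NADH-coupled ATPase readout: 5 nM Pol theta (1-899) preincubated 15 min with 10-point compound series in Tris pH 7.80, KCl, MgCl2, DTT, BSA, Tween, glycerol, then 100 μM ATP, 300 nM 50-mer poly-dT ssDNA, NADH, PEP, LDH and PK added (stock levels). A340 followed 60 min; slopes fit four-parameter for IC50.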
In turn, `CC[S@@+]([O-])c1cc(OC)c(-c2cc(C)ncc2C(=O)Nc2nnc(OC)s2)cc1Cl` (single isomer, unassigned) [Example 313] showed an IC50 not above 0.2 µM.

In turn, `COc1nnc(NC(=O)c2cnc(C)cc2-c2cc(Cl)c([S@@+]([O-])C3CC3)cc2OC)s1` (single isomer, unassigned) [Example 318] showed an IC50 not above 0.2 µM.

The compound `COc1nnc(NC(=O)c2cnc(C)cc2-c2cc(Br)c([S@@+](C)[O-])cc2OC)s1` (single isomer, unassigned) [Example 319] returned an IC50 not above 0.2 µM.

The compound `COc1nnc(NC(=O)c2cnc(C)cc2-c2cc(Cl)c([S@+]([O-])C3CC3)cc2OC)s1` (single isomer, unassigned) [Example 321] yielded an IC50 of 1 to 10 µM.

As for `COc1nnc(NC(=O)c2cnc(C)cc2-c2cc(Br)c([S@+](C)[O-])cc2OC)s1` (single isomer, unassigned) [Example 322], the half-maximal inhibitory concentration (IC50) is 0.5 to 1 µM.

For `COc1cnc(Cl)cc1-c1cc(C)ncc1C(=O)Nc1nnc(O[C@H]2CCCN(C3CCOC3)C2)s1` (stereo in doubt) [Example 310, 2′-chloro-5′-methoxy-6-methyl-N-(5-(((S)-1-((S)-tetrahydrofuran-3-yl)piperidin-3-yl)oxy)-1,3,4-thiadiazol-2-yl)-[4,4′-bipyridine]-3-carboxamide], the concentration for half-maximal inhibition (IC50) was not above 0.2 µM.

The assay is the same for the next values; noted with them: Table 4; Pol theta (1-899) 5 nM, ATP, dT50 ssDNA.
Turning to `C#CCOc1nnc(NC(=O)c2ccncc2-c2ccccc2OC)s1` [Example 1, 3-(2-methoxyphenyl)-N-(5-(prop-2-yn-1-yloxy)-1,3,4-thiadiazol-2-yl)isonicotinamide], the IC50 is not above 0.2 µM.

Regarding `COc1nnc(NC(=O)c2cnc(C)cc2-c2c(F)cccc2OC)s1` [Example 2, 4-(2-fluoro-6-methoxyphenyl)-N-(5-methoxy-1,3,4-thiadiazol-2-yl)-6-methylpyridine-3-carboxamide], the IC50 is not above 0.2 µM.

`COc1cccc(F)c1-c1cc(C)ncc1C(=O)Nc1nnc(O)s1` [Example 3, 4-(2-fluoro-6-methoxyphenyl)-N-(5-hydroxy-1,3,4-thiadiazol-2-yl)-6-methylnicotinamide] gave a 50% inhibitory concentration (IC50) of 1 to 10 µM.

With `COc1cccc(F)c1-c1cc(C)ncc1C(=O)Nc1nnc(OCC(C)(C)C(F)(F)F)s1` [Example 4, 4-(2-fluoro-6-methoxyphenyl)-6-methyl-N-(5-(3,3,3-trifluoro-2,2-dimethylpropoxy)-1,3,4-thiadiazol-2-yl)pyridine-3-carboxamide], the half-maximal inhibitory concentration (IC50) is 0.2 to 0.5 µM.

As for `COc1nnc(NC(=O)c2cnc(C)cc2-c2cc(Cl)ncc2OC)s1` [Example 5, 2′-chloro-5′-methoxy-N-(5-methoxy-1,3,4-thiadiazol-2-yl)-6-methyl-(4,4′-bipyridine)-3-carboxamide], the concentration for half-maximal inhibition (IC50) is not above 0.2 µM.

`COc1cnc(Cl)cc1-c1cc(C)ncc1C(=O)Nc1nnc(OC(C)C)s1` [Example 6, 2′-chloro-N-(5-isopropoxy-1,3,4-thiadiazol-2-yl)-5′-methoxy-6-methyl-(4,4′-bipyridine)-3-carboxamide] yielded an IC50 not above 0.2 µM.

Take `COc1cnc(Cl)cc1-c1cc(C)ncc1C(=O)Nc1nnc(OC2CC2)s1` [Example 7, 2′-chloro-N-(5-cyclopropoxy-1,3,4-thiadiazol-2-yl)-5′-methoxy-6-methyl-(4,4′-bipyridine)-3-carboxamide]: the IC50 was not above 0.2 µM.

`COc1nnc(NC(=O)c2cnc(C)cc2-c2cc(C)ncc2OC)s1` [Example 8] displayed a half-maximal inhibitory concentration (IC50) not above 0.2 µM.

As for `COc1nnc(NC(=O)c2cnc(C)cc2-c2cc(Cl)ccc2OC)s1` [Example 9, 4-(5-chloro-2-methoxyphenyl)-N-(5-methoxy-1,3,4-thiadiazol-2-yl)-6-methylnicotinamide], the IC50 was not above 0.2 µM.

Compound `COc1cnc(Cl)cc1-c1cc(C)ncc1C(=O)Nc1nnc(OCC(C)(C)C#N)s1` [Example 10, 2′-chloro-N-(5-(2-cyano-2-methylpropoxy)-1,3,4-thiadiazol-2-yl)-5′-methoxy-6-methyl-(4,4′-bipyridine)-3-carboxamide] registered a 50% inhibitory concentration (IC50) not above 0.2 µM.

`COc1cnc(Cl)cc1-c1cc(C)ncc1C(=O)Nc1nnc(OC2CCC2)s1` [Example 11, 2′-chloro-N-(5-cyclobutoxy-1,3,4-thiadiazol-2-yl)-5′-methoxy-6-methyl-(4,4′-bipyridine)-3-carboxamide]: the IC50 is not above 0.2 µM.

The compound `COc1cnc(Cl)cc1-c1cc(C)ncc1C(=O)Nc1nnc(OC2CCCCC2)s1` [Example 12, 2′-chloro-N-(5-(cyclohexyloxy)-1,3,4-thiadiazol-2-yl)-5′-methoxy-6-methyl-(4,4′-bipyridine)-3-carboxamide] came in with an IC50 not above 0.2 µM.

For `COc1cnc(Cl)cc1-c1cc(C)ncc1C(=O)Nc1nnc(OC2COC2)s1` [Example 13, 2′-chloro-5′-methoxy-6-methyl-N-(5-(oxetan-3-yloxy)-1,3,4-thiadiazol-2-yl)-(4,4′-bipyridine)-3-carboxamide], the IC50 was not above 0.2 µM.

`COc1cnc(Cl)cc1-c1cc(C)ncc1C(=O)Nc1nnc(OCC(C)(C)O)s1` [Example 14, 2′-chloro-N-(5-(2-hydroxy-2-methylpropoxy)-1,3,4-thiadiazol-2-yl)-5′-methoxy-6-methyl-(4,4′-bipyridine)-3-carboxamide] came in with an IC50 not above 0.2 µM.

Regarding `COc1cnc(Cl)cc1-c1cc(C)ncc1C(=O)Nc1nnc(O[C@H]2C[C@@H](O)C2)s1` [Example 15, 2′-chloro-N-(5-((1s,3s)-3-hydroxycyclobutoxy)-1,3,4-thiadiazol-2-yl)-5′-methoxy-6-methyl-(4,4′-bipyridine)-3-carboxamide], the concentration for half-maximal inhibition (IC50) was not above 0.2 µM.

Consider `COc1cnc(Cl)cc1-c1cc(C)ncc1C(=O)Nc1nnc(O[C@H]2C[C@H](O)C2)s1` [Example 16, 2′-chloro-N-(5-((1r,3r)-3-hydroxycyclobutoxy)-1,3,4-thiadiazol-2-yl)-5′-methoxy-6-methyl-(4,4′-bipyridine)-3-carboxamide], for which the IC50 was not above 0.2 µM.

In the case of `COc1cnc(Cl)cc1-c1cc(C)ncc1C(=O)Nc1nnc(OC2CCCC2)s1` [Example 17, 2′-chloro-N-(5-(cyclopentyloxy)-1,3,4-thiadiazol-2-yl)-5′-methoxy-6-methyl-(4,4′-bipyridine)-3-carboxamide], the 50% inhibitory concentration (IC50) is not above 0.2 µM.

Compound `COc1cnc(Cl)cc1-c1cc(C)ncc1C(=O)Nc1nnc(OCC(F)F)s1` [Example 18, 2′-chloro-N-(5-(2,2-difluoroethoxy)-1,3,4-thiadiazol-2-yl)-5′-methoxy-6-methyl-(4,4′-bipyridine)-3-carboxamide] registered an IC50 not above 0.2 µM.

For `COc1cnc(Cl)cc1-c1cc(C)ncc1C(=O)Nc1nnc(OCC(C)(C)F)s1` [Example 19, 2′-chloro-N-(5-(2-fluoro-2-methylpropoxy)-1,3,4-thiadiazol-2-yl)-5′-methoxy-6-methyl-(4,4′-bipyridine)-3-carboxamide], the IC50 is not above 0.2 µM.

As to `COc1cnc(Cl)cc1-c1cc(C)ncc1C(=O)Nc1nnc(OCC(C)(F)F)s1` [Example 20, 6′-chloro-N-(5-(2,2-difluoropropoxy)-1,3,4-thiadiazol-2-yl)-3′-methoxy-6-methyl-4,4′-bipyridine-3-carboxamide], the concentration for half-maximal inhibition (IC50) is not above 0.2 µM.

The compound `COc1cnc(Cl)cc1-c1cc(C)ncc1C(=O)Nc1nnc(OCC(C)C)s1` [Example 21, 2′-chloro-N-(5-isobutoxy-1,3,4-thiadiazol-2-yl)-5′-methoxy-6-methyl-(4,4′-bipyridine)-3-carboxamide] had an IC50 not above 0.2 µM.

The term IC50 denotes the concentration needed to halve the response being measured. Low readings indicate inhibition by little substance, high ones a need for much substance.
